Assay results: US9638702B2 (priority 2001, dated 2017)
Where two headings read alike, the source gives them in different places.

How the values were obtained:
[1] = assay type: physicochemical
[2] = assay type: physicochemical; remark: listed apart in the source

For poly-L-lysine, the CD minimum ([1]; pH 7) was “approximately 205 nm”, the CD minimum ([1]; pH 11) was “approximately 216 nm” and the absorbance plateau ([2]; pH 7) was “approximately 0.22”. For the same substance, the absorbance plateau ([2]; pH 11) was “approximately 0.12”.
